Marks after values point to notes of the source that are not given here.
Key:
[1] = tested on: N-STZ-1.5 rats; assay: Oral glucose tolerance test using N-STZ-1.5 rats (glucose-lowering effects and insulinotropic action); format: in vivo, rat; settings: 3 mg/kg body weight oral, 1 hr before glucose loading 1.5 g/kg, male N-STZ-1.5 rats, n=6; for blood glucose decrease rate (%): glucose AUC (0-60 min) vs control group; for insulin increase rate (fold): insulin AUC (0-60 min) test group/control group
Protocol: The glucose-lowering effects and insulinotropic action of the compound of the present invention were evaluated by an oral glucose tolerance test using N-STZ-1.5 rats.
Streptozotocin (120 mg/kg) was subcutaneously administered to 1 or 2 days-old male Wistar Kyoto rats to prepare type 2 diabetic model N-STZ-1.5 rats. The rats were allowed free access to standard laboratory chow diet (CE-2, CLEA Japan, Inc.).
Male N-STZ-1.5 rats (25-week-old) were fasted for 15-17 hr, and the body weight was measured. Heparin (Ajinomoto Co., Inc.) as an anticoagulant and aprotinin (SIGMA) as a protease inhibitor were added, blood samples were collected from tail vein. The blood was centrifuged, the concentrations of glucose and triglyceride in plasma were measured, and the rats were divided into each group (n=6) based on these parameters. A 0.5% methylcellulose (control group) or a 0.5% methylcellulose suspension containing a test compound (3 mg/kg body weight) was orally administered to the rats at 5 ml/kg and, 1 hr after the administration, glucose solution (Otsuka Pharmaceutical Co., Ltd.) was orally administered at 1.5 g/7.5 ml/kg. Immediately before (0 min value) and 10, 30 and 60 min after the glucose loading, blood was drawn from the tail vein, centrifuged, and the concentrations of glucose and insulin in plasma were measured. The glucose and triglyceride concentrations were measured by automatic analysis apparatus 7180 (Hitachi, Ltd.), and the insulin concentration was measured by rat insulin radioimmunoassay kit (MIllipore). The area under glucose curve (AUC) and insulin AUC were calculated using the following formulas, and the blood glucose decrease rate (%) and insulin increase rate (fold) were calculated by the following formulas from the obtained AUCs. A statistical significant difference from the control group was analyzed by the Dunnett's test or Steel's test.
Glucose AUC (0-60 Min): {(0 min glucose in plasma)+(10 min glucose in plasma)}×10/2+{(10 min glucose in plasma)+(30 min glucose in plasma)}×20/2+{(30 min glucose in plasma)+(60 min glucose in plasma)}×30/2 insulin AUC (0-60 Min): {(0 min insulin in plasma)+(10 min insulin in plasma)}×10/2+{(10 min insulin in plasma)+(30 min insulin in plasma)}×20/2+{(30 min insulin in plasma)+(60 min insulin in plasma)}×30/2 Blood Glucose Decrease Rate (%): [(test compound administration group glucose AUC/control group glucose AUC)−1]×100 insulin Increase Rate (Fold):
test compound administration group insulin AUC/control group insulin AUC

[2] = target: T1, human GPR40 (Homo sapiens, UniProt O14842); assay: Evaluation of human GPR40 agonist activity with increase in intracellular Ca2+ concentration as an index (FLIPR); format: cell-based; settings: test compound 1 μM; CHO(dhfr−) cells stably expressing human GPR40; 100% = 10 μM compound of Example 153, 0% = DMSO
T1 construct: expressed in transfected cells
T1 sequence (O14842 whole entry): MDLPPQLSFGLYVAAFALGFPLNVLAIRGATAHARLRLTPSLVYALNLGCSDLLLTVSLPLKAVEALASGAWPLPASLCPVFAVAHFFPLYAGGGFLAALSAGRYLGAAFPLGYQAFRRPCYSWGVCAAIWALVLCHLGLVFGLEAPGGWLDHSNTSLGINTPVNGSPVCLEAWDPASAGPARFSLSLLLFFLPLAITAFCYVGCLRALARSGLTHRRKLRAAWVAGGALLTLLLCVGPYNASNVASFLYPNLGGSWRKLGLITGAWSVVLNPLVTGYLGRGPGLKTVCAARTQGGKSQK
How it was run: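 CHO(dhfr−) cells stably expressing full-length human GPR40 were loaded with Ca2+ probe for 1 h at room temperature, then given test compound at 1 μM final. Fluorescence was followed on FLIPR, with activity scaled to a reference agonist at 10 μM (100%) and DMSO (0%).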

Row | Structure (SMILES) | activation at 1 µM [2] | Activity (human GPR40 agonist activity) [2] | blood glucose decrease rate (%) [1] | insulin increase rate (fold) [1]
1 | COc1ccc(C(=O)N(CC(C)(C)C)c2nc(C)cc(C)n2)c(N2CCC(COc3cc([C@@H](CC(=O)O)C4CC4)ccn3)CC2)c1 [Example 246, (3S)-3-cyclopropyl-3-(2-((1-(2-((2,2-dimethylpropyl)(4,6-dimethylpyrimidin-2-yl)carbamoyl)-5-methoxyphenyl)piperidin-4-yl)methoxy)pyridin-4-yl)propanoic acid] | 103% | – | 42.7^$ % | 2.1** fold
2 | COc1ccc(C(=O)N(CC(C)(C)C)c2ncccn2)c(N2CCC(COc3cc(C(CC(=O)O)C4CC4)ccn3)CC2)c1 (stereo not shown) [Example 184, 3-cyclopropyl-3-(2-((1-(2-((2,2-dimethylpropyl)(pyrimidin-2-yl)carbamoyl)-5-methoxyphenyl)piperidin-4-yl)methoxy)pyridin-4-yl)propanoic acid] | – | – | 27.9^$ % | 1.4 fold
3 | COc1ccc(C(=O)N(CC(C)(C)F)c2cc(C)ccn2)c(N2CCC(COc3cc(C(CC(=O)O)C4CC4)ccn3)CC2)c1 (stereo not shown) [Example 185, 3-cyclopropyl-3-(2-((1-(2-((2-fluoro-2-methylpropyl)(4-methylpyridin-2-yl)carbamoyl)-5-methoxyphenyl)piperidin-4-yl)methoxy)pyridin-4-yl)propanoic acid] | – | – | 30.8^$ % | 1.6 fold

More lines, main results first:

Row | activation at 1 µM [2] | Activity (human GPR40 agonist activity) [2] | Structure (SMILES) | blood glucose decrease rate (%) [1] | insulin increase rate (fold) [1]
4 | 102% | – | COc1ccc(C(=O)N(CC(C)(C)C)c2ccccn2)c(N2CCC(COc3cc([C@@H](CC(=O)O)C4CC4)ccn3)CC2)c1 [Example 247, (3S)-3-cyclopropyl-3-(2-((1-(2-((2,2-dimethylpropyl)(pyridin-2-yl)carbamoyl)-5-methoxyphenyl)piperidin-4-yl)methoxy)pyridin-4-yl)propanoic acid] | 41.5^$ % | 2.0** fold
5 | – | 102% | COc1ccc(C(=O)N(CC(C)(C)C)c2cccc(C)n2)c(N2CCC(COc3cc([C@@H](CC(=O)O)C4CC4)ccn3)CC2)c1 [Example 245, (3S)-3-cyclopropyl-3-(2-((1-(2-((2,2-dimethylpropyl)(6-methylpyridin-2-yl)carbamoyl)-5-methoxyphenyl)piperidin-4-yl)methoxy)pyridin-4-yl)propanoic acid] | 44.5^$ % | 2.1** fold
